Experimental data from ChEMBL document CHEMBL3507680, “University of Dundee, Gates Library screen for HepG2 cell viability”.

Test: Human HepG2 cell viability assay in 384 well format
Assay type: toxicity, cell-based
Set-up: dose 125 nL, time 70.5 hour; cytotoxicity at 70.5 h: concentration not given beside the values
Details: HepG2 cells, read-out: Inhibition

Compound	cytotoxicity at 70.5 h [%]
CCC(O)CN1CCN(C(=O)c2ccc(Cn3cccc3)cc2)CC1 (stereo not given)	-11.6
Cc1ccc(NC(=O)NC(C)Cn2cccn2)cc1 (stereo not given)	-11.9
OCC1CCCN1c1cc(NCc2ccc(Cl)s2)ncn1 (stereo not given)	-2.35
Cc1nc(CN2C(=O)C[C@@H]3[C@@H]2CCN3S(=O)(=O)C2CC2)cs1	19.1
CCN(CC)C(=O)c1ccc(NC(=O)CNc2ccc(Br)cc2F)cc1	4.87
Cc1cc(F)ccc1S(=O)(=O)NCc1[nH]ncc1Br	-7.73
Cc1n[nH]c(C)c1CNCC(O)c1ccc(F)c(F)c1 (stereo not given)	-3.32
Cn1nnnc1SCCNC(=O)CC1CCc2ccccc21 (stereo not given)	-1.31
Cc1oc(-c2ccccc2)nc1CN1CCC(c2ccnn2C)CC1	-78.8
Cc1ccc(NC(=O)CCc2cnn(C)c2)cc1F	-8.37
COc1ccnc(N2CCN(C(=O)Cc3ccn(C(C)C)n3)CC2)n1	-5.11
CN(C)S(=O)(=O)c1ccc(CN2CCCC2c2ccsc2)o1 (stereo not given)	-7.08
COC(=O)[C@H]1CN(S(C)(=O)=O)CCN1S(C)(=O)=O	-2.09
CS(=O)(=O)N1CC(c2n[nH]c3ncccc23)C1	-1.49
Cc1cc(CN(C)C(C(=O)O)c2ccc(C(C)(C)C)cc2)on1 (stereo not given)	-5.92
COCCO[C@H]1CCN(Cc2ccoc2)[C@H]1Cc1cccnc1	-0.128
CCOCC1CN(Cc2cnn(C)c2)Cc2c1cnn2CC (stereo not given)	7.67
Cc1nc(-c2ccncc2)ncc1C(C)NC(=O)CN1CCCC1=O (stereo not given)	-5.92
CN(Cc1ccccc1)CC1(O)CCCN(CC(C)(C)C)C1=O (stereo not given)	-3.59
C[C@H]1C[C@H]2CN(C(=O)CCOc3ccccc3)CC[C@H]2O1	-1.04
CSCc1noc(CNC(=O)c2cc(C)c(C)[nH]c2=O)n1	-5.2
Cc1ccc(N2CCC3(CN(CCO)CCC3(F)F)C2)nn1 (stereo not given)	-6.24
CCO[C@@H]1CO[C@@]2(CCCN(C(=O)COc3ccccc3OC)C2)C1	-9.81
Cc1oc(-c2ccccc2)nc1C(=O)NC1=NCCS1	-0.24
CN(C)S(=O)(=O)c1csc(C(=O)N2CCC(C(N)=O)CC2)c1	-7.56
CO[C@H]1CN(C(=O)c2ccc(-c3ccccc3)[nH]2)CC[C@H]1N	-10.1
Cn1nc(C(=O)NC2CC(C)(C)NC(C)(C)C2)cc1NC(=O)C1CC1	-8.61

Compound	cytotoxicity at 70.5 h [%]
CN(C)[C@@H]1CCN(C(=O)c2cccn2C)[C@H]1Cc1cnn(C)c1	-11.3
CN(Cc1nnc(-c2ccco2)o1)C(C(N)=O)c1cccc(F)c1 (stereo not given)	0.238
CCSc1cc(C(=O)NCCc2nnc(-c3ccco3)[nH]2)ccn1	20.1
O=C(c1cccc(Cn2ccnc2)c1)N1CCCC(n2cccn2)C1 (stereo not given)	5.77
OC(COCc1cccs1)Cn1cc(Br)cn1 (stereo not given)	-1.14
COc1cc(N2CC[C@@H]3O[C@@H](C(=O)NCCN(C)C)C[C@@H]32)ncn1	-9.68
O=C(Cc1c[nH]c(=O)[nH]c1=O)N1CCCCC1CCc1cccc(O)c1 (stereo not given)	-5.29
Fc1ccc(CN2CCC(c3n[nH]c4ncccc34)CC2)cc1F	22.2
O=C(CC1CC1)NCc1cn2c(n1)CN(C(=O)C1CCOCC1)CC2	-4.63
NC(=O)CN(C(=O)C1Cc2cc(Cl)ccc2O1)C1CCCC1 (stereo not given)	24.1
COC(=O)c1ccc(CN2CCN(Cc3nc(C)no3)CC2)s1	-7.55
CS(=O)(=O)c1cc(NC(=O)COc2ccccc2F)cc(C(=O)O)c1	-2.84
CC(=O)N1[C@H](CN(C)C)C[C@@H]2CN(c3ncc(F)cn3)CC[C@@H]21	-6.27
CN1CC(c2ccccc2)CC12CCN(C(=O)c1c(Cl)cnn1C)CC2 (stereo not given)	-7.56
O=C(NCCN1CCOCC1)c1scnc1Cl	-15.1
CCOCc1nn(CC2CC2)c2c1CN(Cc1cccs1)CC2	-6.81
CCOC(=O)Cn1c(=O)nc(N)c2c(-c3ccc(OC)cc3)csc21	-12.9
Cc1cc(C(=O)N2CCCC2)ccc1NCC(=O)N1CCOCC1	-6.05
CC(=O)N1CC[C@@]2(C(=O)Nc3ccccc3)CCN(S(C)(=O)=O)CC[C@@H]12	-1.82
Cn1cc(CC(=O)N2CCCC(c3ccn[nH]3)C2)cn1 (stereo not given)	-1.63
Cc1cnn(C2CN(CC(=O)N(C)Cc3ccc(C)o3)C2)c1	39.8
CCC1(c2ccc(NS(=O)(=O)N(C)C)cc2)CCC(=O)NC1=O (stereo not given)	-2.76
CCC(=O)N1CCC2(COCc3cnc(N4CCOCC4)nc32)C1 (stereo not given)	1.55
COCCOc1ccc(NC(=O)N2CCCC2c2ccsc2)cn1 (stereo not given)	-5.25
CC(C)n1ccc(C(=O)N2CCCC(n3cncn3)C2)n1 (stereo not given)	-10.6
COc1ccc(S(=O)(=O)NCCCc2nnc3nc(C)cc(C)n23)cc1	-7.77
Cc1nn(C)c2cnn(Cc3ccc(C(=O)NC4CC4)cc3)c12	-5.97

Compound	cytotoxicity at 70.5 h [%]
Cc1nc(-c2ccccc2)n(CC(=O)NC(C)(C)C)n1	1.44
Cc1cc(C)cc(OCC(O)CN2CCN(c3nccs3)CC2)c1 (stereo not given)	8.55
CCc1nnc2n1CCN(C(=O)c1ccc(-c3ccco3)[nH]c1=O)C2	-6.59
Cn1c(-c2ccccc2Cl)nc2cc(C(=O)NC(CO)CO)cnc21	-8.01
Nc1cc(-c2cccc3c2CCNC3)ncn1	-6.17
CC(C)(C)Nc1nc(-c2cccnc2)c(-c2ccnc(NCCO)n2)s1	-9.49
CC(=O)N1CCC2(CC1)[C@@H]1CN(C(=O)N(C)C)C[C@@H]1C(=O)N2C	-7.5
c1ccc(Cc2noc(CN3CCCCC3Cn3cncn3)n2)cc1 (stereo not given)	11.2
Cc1csc(CNC(=O)NCC(O)c2ccc(F)c(F)c2)n1 (stereo not given)	10.8
O=C(c1ccoc1)N1CCn2nc(CN3CCSCC3)cc2C1	17.6
Cc1nc(C)n(CC2CCCN(CC(=O)N3CCCC3)C2)n1 (stereo not given)	-4.82
Cc1nc2cc(C(=O)N3CCCC(n4ccnc4)C3)ccc2n1C (stereo not given)	-2.44
CN(C)C(=O)NC1COC2(CCN(Cc3nccn3C)CC2)C1 (stereo not given)	2.06
O=C(N[C@@H]1CN(CC2CC2)[C@@H]2CCCO[C@@H]21)c1cscn1	-1.52
CC(C)CNC(=O)c1ccc(NC(=O)NC2CC2)cc1Cl	-12.8
Cc1ccc(CN2Cc3nccn3CC(CN(C)C)C2)s1 (stereo not given)	-7.65
Cn1c(=O)c2cc(C(=O)NCCOCC(F)(F)F)ccc2n(C)c1=O	25.9
COCCN(C)c1cnn(C)c(=O)c1Br	-14.7
Cc1n[nH]c(C)c1-c1c(C#N)c(N)nc2c1CCc1[nH]ccc1-2	-3.53
COc1ccc(C[C@H]2CN(C3CCOCC3)CC[C@H]2OCC2CC2)cc1	20
CCCn1nc2c(cc1=O)CN(Cc1ncc(C(C)(C)C)o1)CC2	-4.85
CCN(CCc1ccccc1)Cn1nc(C)c2c(C)onc2c1=O	-1.87
CN(CC(=O)Nc1cccnc1)C1CCCN(c2cccnn2)C1 (stereo not given)	31.2
CSCCC(=O)N1CCCC(c2ncc[nH]2)C1 (stereo not given)	-21.7
COc1ccc(S(=O)(=O)NCCC(O)c2cc(C)oc2C)c(C)c1 (stereo not given)	-5.42
COCCC1(CNC(=O)Nc2ccc(-n3nccn3)cc2)CCC1	13.3
